Laboratory results as given in patent publication US5686486A, “4-hydroxy-benzopyran-2-ones and 4-hydroxy-cycloalkyl[b]pyran-2-ones useful to treat retroviral infections” (priority 1995, dated 1997).
Read-outs that look alike come from different tables or passages of the source.

Target: HIV-1 protease (Human immunodeficiency virus type 1 group M subtype B, UniProt P04585)
Assay: biochemical
Details: for inhibition at 0.123 µM: read-out: HIV-1 Protease % Inhib, dose 0.123 uM
Outline: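 Percent inhibition derived from fluorescent cleavage product separated by filtration after streptavidin-bead capture of intact biotin/FITC substrate. Reaction: enzyme (10 μl, 0.1 μM stock) with substrate (20 μl, 0.2 μM stock) and compound, 1 h at room temperature in dark, pH 5.5 acetate buffer with 1.0 M NaCl and 0.05% NP-40.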

[1] = read-out: HIV-1 Protease % Inhib, dose 0.370 uM
[2] = read-out: HIV-1 Protease % Inhib, dose 1.100 uM
[3] = read-out: HIV-1 Protease % Inhib, dose 3.300 uM
[4] = read-out: HIV-1 Protease % Inhib, dose 10.000 uM
[5] = read-out: HIV-1 Protease % Inhib, dose 30.000 uM
[6] = dose 1.100 uM, read-out: HIV-1 Protease % Inhib
[7] = dose 3.300 uM, read-out: HIV-1 Protease % Inhib
[8] = dose 10.000 uM, read-out: HIV-1 Protease % Inhib
[9] = dose 30.000 uM, read-out: HIV-1 Protease % Inhib

inhibition at 0.37 µM (dose 0.370 uM, read-out: HIV-1 Protease % Inhib) [%]	inhibition at 1.1 µM [6] [%]	inhibition at 3.3 µM [7] [%]	inhibition at 10 µM [8] [%]	inhibition at 30 µM [9] [%]	Compound	inhibition at 0.123 µM [%]	inhibition at 0.37 µM [1] [%]	inhibition at 1.1 µM [2] [%]	inhibition at 3.3 µM [3] [%]	inhibition at 10 µM [4] [%]	inhibition at 30 µM [5] [%]
					CCC(c1cccc(NS(=O)(=O)c2ccc(C#N)cc2)c1)c1c(O)c2c(oc1=O)CCCCCC2 (stereo not shown) [Example 222, Benzenesulfonamide, 4-cyano-N-[3-[1-(5,6,7,8,9,10-hexahydro-4-hydroxy-2-oxo-2H-cycloocta[b]pyran-3-yl)propyl]phenyl]-]	80.4	94.1	103	110	111	110
					CCNC(=O)Nc1cccc(C(c2c(O)c3c(oc2=O)CCCCCC3)C2CC2)c1 (stereo not shown) [Example 223, N-[3-[Cyclopropyl(5,6,7,8,9,10-hexahydro-4-hydroxy-2-oxo-2H-cycloocta[b]pyran-3-yl)methyl]phenyl]-N'-ethyl-urea]	11.1	31.3	62.3	85.7	102	101
10.9	42.4	72.3	83.7	95.3	O=C(Nc1ccccc1)Nc1cccc(C(c2c(O)c3c(oc2=O)CCCCCC3)C2CC2)c1 (stereo not shown) [Example 224, N-[3-[Cyclopropyl(5,6,7,8,9,10-hexahydro-4-hydroxy-2-oxo-2H-cycloocta[b]pyran-3-yl)methyl]phenyl]-N'-phenyl-urea]						
					O=C(Nc1cccc(C(c2c(O)c3c(oc2=O)CCCCCC3)C2CC2)c1)Oc1ccccc1 (stereo not shown) [Example 225, [3-[Cyclopropyl(5,6,7,8,9,10-hexahydro-4-hydroxy-2-oxo-2H-cycloocta[b]pyran-3-yl)methyl]phenyl]-, phenyl ester carbamic acid]			14.9	47	77.2	91.7
					CC(C)C(c1ccccc1)c1c(O)c2c(oc1=O)CCCCCC2 (stereo not shown) [Example 227, 2H-Cycloocta[b]pyran-2-one,5,6,7,8,9,10-hexahydro-4-hydroxy-3-(2-methyl-1-phenylpropyl)-]		41.7	81.1	91.1	90.1	80.9
	13.8	36	65.3	78.9	O=c1oc2c(c(O)c1C(c1cccc(NCc3ccccc3)c1)C1CC1)CCCCCC2 (stereo not shown) [Example 242, 3-[Cyclopropyl-[3-[(phenylmethyl)amino]phenyl]methyl]-5,6,7,8,9,10-hexahydro-4-hydroxy-2H-cycloocta[b]pyran-2-one]						
		24.4	44.7	54.3	O=c1oc2c(c(O)c1C(c1cccc(NCCc3ccccc3)c1)C1CC1)CCCCCC2 (stereo not shown) [Example 243, 3-[Cyclopropyl-[3-[(2-phenylethyl)amino]phenyl]methyl]-5,6,7,8,9, 10-hexahydro-4-hydroxy-2H-cycloocta[b]pyran-2-one]						
			18.8	31.8	O=c1oc2c(c(O)c1C(c1cccc(N(Cc3ccccc3)S(=O)(=O)c3ccccc3)c1)C1CC1)CCCCCC2 (stereo not shown) [Example 244, N-[3-[Cyclopropyl(5,6,7,8,9, 10-hexahydro-4-hydroxy-2-oxo-2H-cycloocta[b]pyran-3-yl)methyl]phenyl]-N-(phenylmethyl)-benzenesulfonamide]						
	10.6	50.9	59.5	78.6	CS(=O)(=O)N(Cc1ccccc1)c1cccc(C(c2c(O)c3c(oc2=O)CCCCCC3)C2CC2)c1 (stereo not shown) [Example 245, N-[3-[Cyclopropyl(5,6,7,8,9, 10-hexahydro-4-hydroxy-2-oxo-2H-cycloocta[b]pyran-3-yl)methyl]phenyl]-N-(phenylmethyl)-methanesulfonamide]						
			26.6	49.7	O=c1oc2c(c(O)c1C(c1cccc(N(CCc3ccccc3)S(=O)(=O)c3ccccc3)c1)C1CC1)CCCCCC2 (stereo not shown) [Example 246, N-[3-[cyclopropyl(5,6,7,8,9,10-hexahydro-4-hydroxy-2-oxo-2H-cycloocta[b]pyran-3-yl)methyl]phenyl]-N-(2-phenylethyl)-benzenesulfonamide]						
					O=c1oc2c(c(O)c1C(c1cccc(NS(=O)(=O)c3cccc4cccnc34)c1)C1CC1)CCCCCC2 (stereo not shown) [Example 263, N-[3-[Cyclopropyl(5,6,7,8,9, 10-hexahydro4-hydroxy-2-oxo-2H-cycloocta[b]pyran-3-yl)methyl]phenyl]-8-quinolinesulfonamide]	82.9	89.9	95.7	98.7	108	98.3
					O=c1oc2c(c(O)c1C(c1cccc(NS(=O)(=O)c3ccc(Cl)cc3)c1)C1CC1)CCCCCC2 (stereo not shown) [Example 264, 4-Chloro-N-[3-[cyclopropyl(5,6,7,8,9,10-hexahydro4-hydroxy-oxo-2H-cycloocta[b]pyran-3-yl)methyl]phenyl]-benzenesulfonamide]	78.5	89	99.8	104	108	109
					O=c1oc2c(c(O)c1C(c1cccc(NS(=O)(=O)c3ccc4ccccc4c3)c1)C1CC1)CCCCCC2 (stereo not shown) [Example 266, N-[3-[Cyclopropyl(5,6,7,8,9,10-hexahydro-4-hydroxy-2-oxo-2H-cycloocta[b]pyran-3-yl)methyl]phenyl]-2-naphthalenesulfonamide]	79.8	88.4	104	100	105	103
					O=c1oc2c(c(O)c1C(c1cccc(NS(=O)(=O)c3ccc(C(F)(F)F)cc3)c1)C1CC1)CCCCCC2 (stereo not shown) [Example 267, N-[3-[Cyclopropyl(5,6,7,8,9,10-hexahydro-4-hydroxy-2-oxo-2H-cycloocta[b]pyran-3-yl)methyl]phenyl]-4-(trifluoromethyl)-benzenesulfonamide]	71.5	83.9	92	107	107	110
					O=c1oc2c(c(O)c1C(c1cccc(NS(=O)(=O)c3cccc4ccccc34)c1)C1CC1)CCCCCC2 (stereo not shown) [Example 270, N-[3-[Cyclopropyl(5,6,7,8,9,10-hexahydro4-hydroxy-2-oxo-2H-cycloocta[b]pyran-3-yl)methyl]phenyl]-1-naphthalenesulfonamide]	61.7	93.1	107	111	116	115
					O=c1oc2c(c(O)c1C(c1cccc(NS(=O)(=O)c3cc(Cl)ccc3Cl)c1)C1CC1)CCCCCC2 (stereo not shown) [Example 271, 2,5-Dichloro-N-[3-[cyclopropyl(5,6,7,8,9,10-hexahydro-4-hydroxy-2-oxo-2H-cycloocta[b]pyran-3-yl)methyl]phenyl]-benzenesulfonamide]		16.7	47.5	75.3	88.8	94.2
